Measured values: article PMC11448502, “Cryo-EM structures of the human P2X1 receptor reveal subtype-specific architecture and antagonism by supramolecular ligand-binding” (Nature Communications, 2024)
Positions count from the first letter of the chain named. Where “and” joins values, the source holds several entries; their conditions need not be identical. Equal entries are not always repeated. Where two headings read alike, the source gives them in different places.

Legend:
P2X7 receptor = target: P2X7 receptor; parameters: method as in PMID 33125712, PMID 18657557; settings: read-out: apparent affinity for ATP, cited from earlier work
platelets = settings: ex vivo; cited from earlier work
hP2X1 WT = target: T1, hP2X1 WT (Homo sapiens, UniProt P51575); experiment: NF449 inhibition dose response (IC50), TEVC in oocytes; assay type: cell-based
T1 construct: hP2X1 mRNA that was made from linearized full-length wild-type or mutant pcDNA 3.1x; expressed in transfected cells; host or cells: Xenopus laevis oocytes (mRNA injection)
T1 sequence (P51575 1-399): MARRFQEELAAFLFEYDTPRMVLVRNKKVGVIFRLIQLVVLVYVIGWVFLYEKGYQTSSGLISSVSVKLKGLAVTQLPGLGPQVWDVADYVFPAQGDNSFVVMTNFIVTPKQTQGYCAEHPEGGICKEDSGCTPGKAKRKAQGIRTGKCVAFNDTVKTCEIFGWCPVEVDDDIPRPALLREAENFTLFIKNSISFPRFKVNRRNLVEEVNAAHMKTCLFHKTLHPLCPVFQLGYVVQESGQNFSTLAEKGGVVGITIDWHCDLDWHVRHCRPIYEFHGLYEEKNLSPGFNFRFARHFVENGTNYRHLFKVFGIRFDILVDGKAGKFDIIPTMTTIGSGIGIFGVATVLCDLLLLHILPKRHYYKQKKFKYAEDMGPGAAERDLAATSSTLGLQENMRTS
Experimental: (§1) Oocytes were purchased defolliculated from Ecocyte Bioscience in Barth’s Solution (88 mM NaCl, 1 mM KCl, 0.82 mM MgSO4, 0.33 mM Ca(NO3)2, 0.41 mM CaCl2, 2.4 mM NaHCO3, 5 mM Tris-HCl) supplemented with penicillin (100 U/mL) and streptomycin (100 µg/mL). Xenopus laevis oocytes were then injected with 50 nL of 100 ng/μL hP2X1 mRNA that was made from linearized full-length wild-type or mutant pcDNA 3.1x according to the protocol provided in the mMessage mMachine kit (Invitrogen). Injected oocytes were allowed to express for ~20 hours at 18 °C before recording was performed.
(§2) Data acquisition was performed using the Oocyte Clamp OC-725C amplifier and pClamp 8.2 software. Buffers were applied using a gravity fed RSC-200 Rapid Solution Changer that flows at ~5 mL/min. All experiments use Sutter filamented glass 10 cm in length with an inner diameter of 0.69 mm and an outer diameter of 1.2 mm to impale oocytes and clamp the holding voltage at −60 mV. Experiments were recorded in buffer containing 10 mM HEPES (pH 7.4), 140 mM NaCl, 5 mM KCl, 2 mM CaCl2, 2 mM MgCl2, and 10 mM glucose.
(§3) To test a dilution series of an antagonist at discrete concentrations, 10 µM ATP (2 mM ATP for K309A only) was first applied to evoke an initial maximum current. The oocyte was then washed with buffer for one minute, followed by one minute application of an antagonist test-concentration, and concluded by co-application of the same test concentration with 10 µM ATP (2 mM ATP for K309A). The antagonized signal was then normalized against the initial ATP excitatory signal. Each test concentration was performed in triplicate across different oocytes. The data was then fit to a nonlinear regression named “[inhibitor] vs. response – Variable slope (four parameters)” in Prism 9 to produce a sigmoidal curve and afford an IC50 value. Each singular condition was used to generate an average which is reported plus or minus its standard deviation between three discrete trials.

hP2X1 R292A = target: T2, hP2X1 R292A (Homo sapiens, UniProt P51575, R292A); experiment: as above; assay type: cell-based; settings: for Normalized Current: hP2X1 R292A
T2 construct: hP2X1 mRNA that was made from linearized full-length wild-type or mutant pcDNA 3.1x; expressed in transfected cells; host or cells: Xenopus laevis oocytes (mRNA injection)
T2 sequence (P51575 1-399 R292A): T1 sequence (P51575 1-399) with R292A
Experimental: as §1, §2, §3

SMILES	EC50 (P2X7 receptor)	EC50 (P2X7 receptor; under certain conditions)	effect on platelet activation (platelets)	Normalized Current (hP2X1 WT; [NF449] 1.600E-10 M)	Normalized Current (hP2X1 WT; [NF449] 3.200E-11 M)	Normalized Current (hP2X1 WT; [NF449] 6.400E-12 M)	Normalized Current (hP2X1 WT; [NF449] 8.000E-10 M)	reduction in inhibitory potency of NF449 (hP2X1 R292A; hP2X1 R292A vs wild-type)	Normalized Current (hP2X1 R292A; [NF449] 1.000E-06 M)	Normalized Current (hP2X1 R292A; [NF449] 1.600E-09 M)	Normalized Current (hP2X1 R292A; [NF449] 2.000E-07 M)	Normalized Current (hP2X1 R292A; [NF449] 3.200E-10 M)	Normalized Current (hP2X1 R292A; [NF449] 4.000E-08 M)	Normalized Current (hP2X1 R292A; [NF449] 8.000E-09 M)
Nc1ncnc2c1ncn2[C@@H]1O[C@H](COP(=O)(O)OP(=O)(O)OP(=O)(O)O)[C@@H](O)[C@H]1O [ATP]	> 100 µM	> 1000 µM	–	–	–	–	–	–	–	–	–	–	–	–
O=C(Nc1cc(C(=O)Nc2ccc(S(=O)(=O)O)cc2S(=O)(=O)O)cc(C(=O)Nc2ccc(S(=O)(=O)O)cc2S(=O)(=O)O)c1)Nc1cc(C(=O)Nc2ccc(S(=O)(=O)O)cc2S(=O)(=O)O)cc(C(=O)Nc2ccc(S(=O)(=O)O)cc2S(=O)(=O)O)c1 [NF449, 4,4’,4”,4’’’-(carbonylbis(imino-5,1,3-benzenetriylbis(carbonylimino)))tetrakis-benzene-1,3-disulfonic acid]	–	–	inhibitory effect	0.9675 and 0.945 and 0.9562	1.007 and 0.9213 and 1.004	1.049 and 0.9637 and 0.9878	0.5214 and 0.4548 and 0.5008	31 fold	0.000000	1.038 and 1.012 and 0.9446	0.09965 and 0.08304 and 0.07993	1.08 and 0.9654 and 0.955	0.4671 and 0.3945 and 0.2595	0.8305 and 0.7889 and 0.7059
